Source: patent publication US20250195671A1, “COVALENT ANESTHETIC-POLYMER CONJUGATES FOR PROLONGED LOCAL ANESTHESIA” (priority 2017, published 2025)
Read-outs that look alike come from different tables or passages of the source.

Assays:
[1] = tested on: sciatic nerve; conditions: rat, in vivo
[2] = tested on: sciatic nerve and surrounding tissues; conditions: rat, in vivo
[3] = cited from earlier work
[4] = in vivo; cited from earlier work
[5] = tested on: rat sciatic nerve; conditions: rat model; cited from earlier work
[6] = tested on: sciatic nerve
[7] = tested on: rat; conditions: in vivo

## N=C1NC(O)[C@H]2[C@@H]3OC4(O)OC(C(O)[C@@]2(N1)[C@@H]4O)[C@]3(O)CO (some centres unmarked) [TTX, Tetrodotoxin]
[1]
  blockade, % of animals: 100%
  nerve blockade, % of animals: 100%
  successful block, % of animals: 100%
[2]
  Median inflammation score (range), Day 4: 0.5(0-1)
  Median inflammation score (range), Day 14: 0(0-0)
  Median myotoxicity score (range), Day 4: 0(0-0)
  Median myotoxicity score (range), Day 14: 0.5(0-1)^
  myotoxicity and inflammation, microscopic examination: did not reveal significant myotoxicity and inflammation

## COc1cc(CNC(=O)CCCC/C=C/C(C)C)ccc1O [capsaicin, 8-Methyl-N-vanillyl-trans-6-nonenamide]
[3]; alcohol, fats and oils
  solubility: freely soluble
[3]; cold water
  solubility: insoluble
[4]
  pharmacokinetic half-life: approximately 24 hours
[5]
  minimum effective dose to produce nerve blockade: approximately 50 μg

## O=C1OC2(c3ccc(O)cc3Oc3cc(O)ccc32)c2ccccc21 [fluorescein sodium]
[6]; 0.25 mg in 0.5 mL of PBS, 1 and 4 hours
  fluorescence in the nerve: No fluorescence was observed in the nerve
[6]; 0.25 mg in 0.5 mL of PEG200, four hours after injection
  fluorescence in the nerve: none
[6]; 0.25 mg in 0.5 mL of PEG200, one hour after injection
  fluorescence in the nerve: fluorescence was observed throughout the nerve

## poly(glycerol sebacate) [TgD8]
[7]
  Contralateral block (%): 0%
  Mortality (%): 0%
